Assay [1] deals with T1, Peroxisome proliferator-activated receptor delta (Homo sapiens, UniProt Q03181).
T1 sequence (Q03181 whole entry): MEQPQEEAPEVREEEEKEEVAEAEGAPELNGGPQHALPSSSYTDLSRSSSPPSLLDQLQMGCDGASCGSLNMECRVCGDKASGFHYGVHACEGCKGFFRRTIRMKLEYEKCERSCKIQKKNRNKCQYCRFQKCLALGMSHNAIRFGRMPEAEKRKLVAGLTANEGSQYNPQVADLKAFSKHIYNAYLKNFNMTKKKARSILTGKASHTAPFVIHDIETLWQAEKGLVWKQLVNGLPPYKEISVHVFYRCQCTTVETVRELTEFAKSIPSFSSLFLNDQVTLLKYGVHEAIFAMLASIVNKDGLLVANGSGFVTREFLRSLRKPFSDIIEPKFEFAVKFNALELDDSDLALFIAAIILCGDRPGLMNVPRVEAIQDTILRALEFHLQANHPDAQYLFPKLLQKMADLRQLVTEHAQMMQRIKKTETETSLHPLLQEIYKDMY
Description: Binding affinity to PPAR-delta (unknown origin) by TR-FRET assay

Assay [2] addresses T2, Peroxisome proliferator-activated receptor gamma (Homo sapiens, UniProt P37231).
T2 sequence (P37231 whole entry): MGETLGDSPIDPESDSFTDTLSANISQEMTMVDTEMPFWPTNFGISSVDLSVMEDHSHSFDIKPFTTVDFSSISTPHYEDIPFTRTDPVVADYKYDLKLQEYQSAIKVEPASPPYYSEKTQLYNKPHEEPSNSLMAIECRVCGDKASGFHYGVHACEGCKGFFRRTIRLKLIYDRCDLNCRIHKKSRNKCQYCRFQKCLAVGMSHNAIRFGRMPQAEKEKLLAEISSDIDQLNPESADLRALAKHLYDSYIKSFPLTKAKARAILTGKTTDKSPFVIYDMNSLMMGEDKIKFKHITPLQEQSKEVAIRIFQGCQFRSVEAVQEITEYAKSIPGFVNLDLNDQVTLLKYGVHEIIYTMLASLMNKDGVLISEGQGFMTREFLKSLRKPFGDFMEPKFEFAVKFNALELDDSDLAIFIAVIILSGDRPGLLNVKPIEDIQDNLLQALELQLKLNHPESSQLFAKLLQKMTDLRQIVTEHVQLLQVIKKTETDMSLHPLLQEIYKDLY
Description: Binding affinity to PPAR-gamma (unknown origin) by TR-FRET assay

For `O[C@@H]1[C@H](O)CS[C@H]1Cn1cnc2c(NCc3cccc(Br)c3)nc(Cl)nc21`, the Ki came to 0.592 µM in assay [1] and 4.07 µM in assay [2].

With `CC#Cc1nc(NCc2cccc(I)c2)c2ncn(C[C@@H]3SC[C@@H](O)[C@H]3O)c2n1`, the affinity in assay [2] corresponds to a Ki of 7.3 µM.

In the case of `O[C@@H]1[C@H](O)CS[C@H]1Cn1cnc2c(NCc3cccc(F)c3)nc(Cl)nc21`, the inhibition constant Ki in assay [1] came out at 1.91 µM; in assay [2], 3.89 µM.

Consider `CC#Cc1nc(NCc2cccc(F)c2)c2ncn(C[C@@H]3SC[C@@H](O)[C@H]3O)c2n1`, for which the inhibitory constant (Ki) in assay [2] was 7.66 µM.

As to `O[C@@H]1[C@H](O)CO[C@H]1Cn1cnc2c(NCc3cccc(Cl)c3)nc(Cl)nc21`, the results for the Ki in assay [1] and in assay [2] were 0.504 µM and 7.66 µM, respectively.

With `O[C@@H]1[C@H](O)CS[C@H]1n1cnc2c(NCc3cccc(I)c3)nc(Cl)nc21`, in assay [1], the affinity, expressed as Ki, was 0.0106 µM.

Molecule `CC#Cc1nc(NCc2cccc(Br)c2)c2ncn(C[C@@H]3SC[C@@H](O)[C@H]3O)c2n1` returned an inhibition constant (Ki) in assay [2] of 7.04 µM.

Regarding `O[C@@H]1[C@H](O)CO[C@H]1Cn1cnc2c(NCc3cccc(Br)c3)nc(Cl)nc21`, the Ki in assay [1] is 1.43 µM; in assay [2] it was 9.55 µM.

These data come from ChEMBL document CHEMBL4699668, “Discovery and Structure-Activity Relationships of Novel Template, Truncated 1'-Homologated Adenosine Derivatives as Pure Dual PPARγ/δ Modulators” (J Med Chem, 2020).
